PubChem BioAssay (NCI)
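Compound exposure: 48 hours, 5 concentrations, 96-well plates. GI50: concentration for 50% inhibition of growth. TGI is the concentration that stops growth completely.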

How the values were obtained:
Assay in all cases: NCI-60 cell line screen, 48 h
[1] = test system: 786-0 renal
[2] = test system: A498 renal
[3] = test system: A549 NSCLC
[4] = test system: ACHN renal
[5] = test system: BT-549 breast
[6] = test system: CAKI-1 renal
[7] = test system: CCRF-CEM leukemia
[8] = test system: COLO 205 colon
[9] = test system: DU-145 prostate
[10] = test system: EKVX NSCLC
[11] = test system: HCC-2998 colon
[12] = test system: HCT-116 colon
[13] = test system: HCT-15 colon
[14] = test system: HL-60(TB) leukemia
[15] = test system: HOP-62 NSCLC
[16] = test system: HOP-92 NSCLC
[17] = test system: HS 578T breast
[18] = test system: HT29 colon
[19] = test system: IGROV1 ovarian
[20] = test system: K-562 leukemia
[21] = test system: KM12 colon
[22] = test system: LOX IMVI melanoma
[23] = test system: M14 melanoma
[24] = test system: MALME-3M melanoma
[25] = test system: MCF7 breast
[26] = test system: MDA-MB-231 breast
[27] = test system: MDA-MB-435
[28] = test system: MOLT-4 leukemia
[29] = test system: NCI-H226 lung
[30] = test system: NCI-H23 lung
[31] = test system: NCI-H460 lung
[32] = test system: NCI-H522 lung
[33] = test system: NCI/ADR-RES ovarian
[34] = test system: OVCAR-3 ovarian
[35] = test system: OVCAR-4 ovarian
[36] = test system: OVCAR-5 ovarian
[37] = test system: OVCAR-8 ovarian
[38] = test system: PC-3 prostate
[39] = test system: RPMI-8226 leukemia
[40] = test system: RXF 393 renal
[41] = test system: SF-268 CNS
[42] = test system: SF-295 CNS
[43] = test system: SF-539 CNS
[44] = test system: SK-MEL-2 melanoma
[45] = test system: SK-MEL-28 melanoma
[46] = test system: SK-MEL-5 melanoma
[47] = test system: SK-OV-3 ovarian
[48] = test system: SN12C renal
[49] = test system: SNB-19 CNS
[50] = test system: SNB-75 CNS
[51] = test system: SW-620 colon
[52] = test system: T-47D breast
[53] = test system: TK-10 renal
[54] = test system: U251 CNS
[55] = test system: UACC-257 melanoma
[56] = test system: UACC-62 melanoma
[57] = test system: UO-31 renal

With `NC(=Nc1ccc(N)cc1)C(N)=Nc1ccc(N)cc1` the GI50 [1] was over 100 µM, the TGI [1] was over 100 µM and the GI50 [2] was 25.3 µM. For the same compound, the TGI [2] was over 100 µM, the GI50 [3] was over 100 µM and the TGI [3] was over 100 µM. The GI50 [4] was 37.5 µM, the TGI [4] was over 100 µM and the GI50 [5] was over 100 µM. For the same compound, the TGI [5] was over 100 µM, the GI50 [6] was 52.6 µM and the TGI [6] was over 100 µM. It also gave a GI50 [7] of 45.7 µM, a TGI [7] of over 100 µM and a GI50 [8] of 43.5 µM. For the same compound, the TGI [8] was over 100 µM, the GI50 [9] was over 100 µM and the TGI [9] was over 100 µM. The GI50 [10] was over 100 µM, the TGI [10] was over 100 µM and the GI50 [11] was over 100 µM. The TGI [11] was over 100 µM, the GI50 [12] was 92.5 µM and the TGI [12] was over 100 µM. It also gave a GI50 [13] of 42.6 µM, a TGI [13] of over 100 µM and a GI50 [14] of 57.1 µM. For the same compound, the TGI [14] was over 100 µM, the GI50 [15] was over 100 µM and the TGI [15] was over 100 µM. The GI50 [16] was over 100 µM, the TGI [16] was over 100 µM and the GI50 [17] was over 100 µM. It also gave a TGI [17] of over 100 µM, a GI50 [18] of 63.4 µM and a TGI [18] of over 100 µM. It also gave a GI50 [19] of 79.1 µM, a TGI [19] of over 100 µM and a GI50 [20] of 81.8 µM. The TGI [20] was over 100 µM, the GI50 [21] was 61 µM and the TGI [21] was over 100 µM. For the same compound, the GI50 [22] was over 100 µM, the TGI [22] was over 100 µM and the GI50 [23] was over 100 µM. It also gave a TGI [23] of over 100 µM, a GI50 [24] of 45.9 µM and a TGI [24] of over 100 µM. For the same compound, the GI50 [25] was 82.8 µM, the TGI [25] was over 100 µM and the GI50 [26] was 77.6 µM. The TGI [26] was over 100 µM, the GI50 [27] was over 100 µM and the TGI [27] was over 100 µM. The GI50 [28] was 55.5 µM, the TGI [28] was over 100 µM and the GI50 [29] was over 100 µM. It also gave a TGI [29] of over 100 µM, a GI50 [30] of over 100 µM and a TGI [30] of over 100 µM. The GI50 [31] was over 100 µM, the TGI [31] was over 100 µM and the GI50 [32] was over 100 µM. It also gave a TGI [32] of over 100 µM, a GI50 [33] of over 100 µM and a TGI [33] of over 100 µM. It also gave a GI50 [34] of 33.3 µM, a TGI [34] of over 100 µM and a GI50 [35] of over 100 µM. It also gave a TGI [35] of over 100 µM, a GI50 [36] of over 100 µM and a TGI [36] of over 100 µM. For the same compound, the GI50 [37] was 69.1 µM, the TGI [37] was over 100 µM and the GI50 [38] was 98.6 µM. The TGI [38] was over 100 µM, the GI50 [39] was over 100 µM and the TGI [39] was over 100 µM. It also gave a GI50 [40] of over 100 µM, a TGI [40] of over 100 µM and a GI50 [41] of over 100 µM. The TGI [41] was over 100 µM, the GI50 [42] was over 100 µM and the TGI [42] was over 100 µM. For the same compound, the GI50 [43] was 73.7 µM, the TGI [43] was over 100 µM and the GI50 [44] was over 100 µM. The TGI [44] was over 100 µM, the GI50 [45] was over 100 µM and the TGI [45] was over 100 µM. The GI50 [46] was over 100 µM, the TGI [46] was over 100 µM and the GI50 [47] was over 100 µM. For the same compound, the TGI [47] was over 100 µM, the GI50 [48] was over 100 µM and the TGI [48] was over 100 µM. For the same compound, the GI50 [49] was over 100 µM, the TGI [49] was over 100 µM and the GI50 [50] was over 100 µM. The TGI [50] was over 100 µM, the GI50 [51] was 64.1 µM and the TGI [51] was over 100 µM. The GI50 [52] was over 100 µM, the TGI [52] was over 100 µM and the GI50 [53] was over 100 µM. It also gave a TGI [53] of over 100 µM, a GI50 [54] of over 100 µM and a TGI [54] of over 100 µM. For the same compound, the GI50 [55] was over 100 µM, the TGI [55] was over 100 µM and the GI50 [56] was over 100 µM. It also gave a TGI [56] of over 100 µM, a GI50 [57] of 33.5 µM and a TGI [57] of over 100 µM.
